Measured values from patent US8841321B2, “Quinoline derivatives as antibacterial agents” (Janssen Pharmaceutica NV, priority 2005, dated 2014).
≈ marks a conversion by molar mass, not a printed value.

Key:
Assay in all cases: Microtitre plate assay, IC90 determination
Format in all cases: cell-based
[1] = system: EFA 29212 (Enterococcus faecalis (ATCC29212)); conditions: for IC90 (μg/ml) EFA 29212: Enterococcus faecalis (ATCC29212); for IC90: Enterococcus faecalis, ATCC29212, Enterococcus faecalis (ATCC29212), read-out: IC90 (μg/ml) EFA 29212
[2] = system: PAE 27853 (Pseudomonas aeruginosa (ATCC27853)); conditions: for IC90 (μg/ml) PAE 27853: Pseudomonas aeruginosa (ATCC27853); for IC90: Pseudomonas aeruginosa, ATCC27853, Pseudomonas aeruginosa (ATCC27853), read-out: IC90 (μg/ml) PAE 27853
[3] = system: SPY 8668 (Streptococcus pyogens (ATCC8668)); conditions: for IC90 (μg/ml) SPY 8668: Streptococcus pyogens (ATCC8668); for IC90: Streptococcus, ATCC8668, Streptococcus pyogens (ATCC8668), read-out: IC90 (μg/ml) SPY 8668
[4] = system: STA 29213 (Staphylococcus aureus (ATCC29213)); conditions: for IC90 (μg/ml) STA 29213: Staphylococcus aureus (ATCC29213); for IC90: Staphylococcus aureus, ATCC29213, Staphylococcus aureus (ATCC29213), read-out: IC90 (μg/ml) STA 29213
In short: (§1)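 Growth-inhibition endpoint: resazurin added 3 h after inoculation, plates incubated overnight, fluorescence at 530/590 nm after 24 h at 37 °C. Inocula of roughly 10–60 CFU per well in Mueller-Hinton medium; compounds titrated five-fold. IC90 reported as μg/ml.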

[5] = system: SPN 6305 (Streptococcus pneumoniae (ATCC6305)); conditions: for IC90 (μg/ml) SPN 6305: Streptococcus pneumoniae (ATCC6305)
In short: as §1

[6] = system: STA RMETH (methicilline resistant Staphylococcus aureus (MRSA), a clinical isolate from the University of Antwerp); conditions: for IC90: Staphylococcus aureus, MRSA, read-out: IC90 (μg/ml) STA RMETH
[7] = system: BSU 43639 (Bacillus subtilis (ATCC43639)); conditions: Bacillus subtilis, ATCC43639, Bacillus subtilis (ATCC43639); read-out: IC90 (μg/ml) BSU 43639
[8] = system: LMO 49594 (Listeria monocytogenes (ATCC49594)); conditions: Listeria monocytogenes, ATCC49594, Listeria monocytogenes (ATCC49594); read-out: IC90 (μg/ml) LMO 49594

| SMILES | IC90 (μg/ml) EFA 29212 [1] | IC90 (μg/ml) PAE 27853 [2] | IC90 (μg/ml) SPY 8668 [3] | IC90 (μg/ml) STA 29213 [4] | IC90 (μg/ml) SPN 6305 [5] | IC90 (μg/ml) STA RMETH [6] | IC90 [1] | IC90 [2] | IC90 [3] | IC90 [4] | IC90 [6] | IC90 ([5]; Streptococcus pneumoniae, ATCC6305, Streptococcus pneumoniae (ATCC6305), read-out: IC90 (μg/ml) SPN 6305) | IC90 [7] | IC90 [8] |
| --- | --- | --- | --- | --- | --- | --- | --- | --- | --- | --- | --- | --- | --- | --- |
| COc1nc2ccc(Br)cc2cc1C(c1ccccc1)C(O)(CCCCN(C)C)c1ccc2cc(Br)ccc2c1 (stereo not drawn) [Compound 8] | 2.1 µg/mL (≈ 3.17 µM) | 5.3 µg/mL (≈ 8 µM) | 10.5 µg/mL (≈ 15.8 µM) | 2.4 µg/mL (≈ 3.62 µM) | 10.5 µg/mL (≈ 15.8 µM) | 2.6 µg/mL (≈ 3.92 µM) | – | – | – | – | – | – | – | – |
| COc1nc2cccc(Br)c2cc1C(c1ccccc1)C(O)(CCCCN(C)C)c1ccc2ccccc2c1 (stereo not drawn) [Compound 29] | – | – | – | – | 9.3 µg/mL (≈ 15.9 µM) | 2.3 µg/mL (≈ 3.94 µM) | 46.3 µg/mL (≈ 79.3 µM) | 20.7 µg/mL (≈ 35.5 µM) | 20.7 µg/mL (≈ 35.5 µM) | 1.9 µg/mL (≈ 3.26 µM) | – | – | – | – |
| COc1ccc2cc(C(O)(CCCCN(C)C)C(c3ccccc3)c3cc4ccccc4nc3OC)ccc2c1 (stereo not drawn) [Compound 35] | – | 8.5 µg/mL (≈ 15.9 µM) | 3.8 µg/mL (≈ 7.11 µM) | – | – | – | 8.5 µg/mL (≈ 15.9 µM) | – | – | 2.1 µg/mL (≈ 3.93 µM) | 10.7 µg/mL (≈ 20 µM) | 1.7 µg/mL (≈ 3.18 µM) | – | – |
| COc1nc2ccc(-c3ccccc3)cc2cc1C(c1ccccc1)C(O)(CCCCN(C)C)c1ccc2ccccc2c1 (stereo not drawn) [Compound 40] | 1.8 µg/mL (≈ 3.1 µM) | 1.8 µg/mL (≈ 3.1 µM) | 1.8 µg/mL (≈ 3.1 µM) | – | 1.8 µg/mL (≈ 3.1 µM) | – | – | – | – | 7.3 µg/mL (≈ 12.6 µM) | 5.2 µg/mL (≈ 8.95 µM) | – | – | – |
| COc1nc2ccc(-c3ccccc3)cc2cc1C(c1ccccc1)C(O)(CCCCN(C)C)c1ccc2ccccc2c1 (stereo not drawn) [Compound 41] | 9.2 µg/mL (≈ 15.8 µM) | 36.6 µg/mL (≈ 63 µM) | 9.2 µg/mL (≈ 15.8 µM) | 9.2 µg/mL (≈ 15.8 µM) | 9.2 µg/mL (≈ 15.8 µM) | 9.2 µg/mL (≈ 15.8 µM) | – | – | – | – | – | – | 9.2 µg/mL (≈ 15.8 µM) | 9.2 µg/mL (≈ 15.8 µM) |
| COc1nc2ccc(Br)cc2cc1C(c1ccccc1)C(O)(CCCCN1CCNCC1)c1ccc2ccccc2c1 (stereo not drawn) [Compound 106] | 1.98 µg/mL (≈ 3.17 µM) | 1.98 µg/mL (≈ 3.17 µM) | 1.98 µg/mL (≈ 3.17 µM) | 1.98 µg/mL (≈ 3.17 µM) | 1.98 µg/mL (≈ 3.17 µM) | – | – | – | – | – | – | – | – | – |

The remaining lines, values ahead:

| IC90 (μg/ml) EFA 29212 [1] | IC90 (μg/ml) PAE 27853 [2] | IC90 (μg/ml) SPY 8668 [3] | IC90 (μg/ml) STA 29213 [4] | IC90 (μg/ml) SPN 6305 [5] | IC90 (μg/ml) STA RMETH [6] | IC90 [1] | IC90 [2] | IC90 [3] | IC90 [4] | IC90 [6] | IC90 ([5]; Streptococcus pneumoniae, ATCC6305, Streptococcus pneumoniae (ATCC6305), read-out: IC90 (μg/ml) SPN 6305) | IC90 [7] | IC90 [8] | SMILES |
| --- | --- | --- | --- | --- | --- | --- | --- | --- | --- | --- | --- | --- | --- | --- |
| 1.9 µg/mL (≈ 3.26 µM) | 1.9 µg/mL (≈ 3.26 µM) | 1.9 µg/mL (≈ 3.26 µM) | 1.9 µg/mL (≈ 3.26 µM) | 1.9 µg/mL (≈ 3.26 µM) | – | – | – | – | – | 11.6 µg/mL (≈ 19.9 µM) | – | – | – | COc1nc2cc(Br)ccc2cc1C(c1ccccc1)C(O)(CCCCN(C)C)c1ccc2ccccc2c1 (stereo not drawn) [Compound 32] |
| 46.3 µg/mL (≈ 79.3 µM) | 52.0 µg/mL (≈ 89.1 µM) | 46.3 µg/mL (≈ 79.3 µM) | 4.1 µg/mL (≈ 7.03 µM) | 9.3 µg/mL (≈ 15.9 µM) | 5.8 µg/mL (≈ 9.94 µM) | – | – | – | – | – | – | – | – | COc1nc2cc(Br)ccc2cc1C(c1ccccc1)C(O)(CCCCN(C)C)c1ccc2ccccc2c1 (stereo not drawn) [Compound 33] |
| 2.18 µg/mL (≈ 3.98 µM) | 1.73 µg/mL (≈ 3.16 µM) | 1.73 µg/mL (≈ 3.16 µM) | – | 0.35 µg/mL (≈ 0.639 µM) | – | – | – | – | 1.73 µg/mL (≈ 3.16 µM) | 10.9 µg/mL (≈ 19.9 µM) | – | – | – | CNCCCCC(O)(CCc1ccccc1)C(c1ccccc1)c1cc2cc(Br)ccc2nc1OC (stereo not drawn) [Compound 70] |
| 8.68 µg/mL (≈ 15.9 µM) | 8.68 µg/mL (≈ 15.9 µM) | 3.88 µg/mL (≈ 7.09 µM) | 1.73 µg/mL (≈ 3.16 µM) | 1.73 µg/mL (≈ 3.16 µM) | 10.92 µg/mL (≈ 19.9 µM) | – | – | – | – | – | – | – | – | CNCCCCC(O)(CCc1ccccc1)C(c1ccccc1)c1cc2cc(Br)ccc2nc1OC (stereo not drawn) [Compound 71] |
| – | – | – | – | 0.39 µg/mL (≈ 0.624 µM) | – | 1.98 µg/mL (≈ 3.17 µM) | 1.98 µg/mL (≈ 3.17 µM) | 1.98 µg/mL (≈ 3.17 µM) | 1.98 µg/mL (≈ 3.17 µM) | – | – | – | – | COc1nc2ccc(Br)cc2cc1C(c1ccccc1)C(O)(CCCCN1CCNCC1)c1ccc2ccccc2c1 (stereo not drawn) [Compound 107] |
